Measurements reported in patent US20080206356A1, “Pharmaceutical Compositions for the Treatment of Neurodegenerative Disorders” (UNIVERSIDAD DE BARCELONA, priority 2005, published 2008).

Legend:
GSK3-β [1] = biological target: T1, GSK3-β (Homo sapiens, UniProt P49841); assay: Ser-9 phosphorylation of GSK3-β in SH-SY5Y neuroblastoma cells (Western blot); format: cell-based; conditions: 1 mM sodium tungstate, 10 minutes, vs vehicle, FIG. 1A
T1 construct: endogenous in cells; host or cells: SH-SY5Y human neuroblastoma cells (ECACC 94030304)
T1 sequence (P49841 whole entry): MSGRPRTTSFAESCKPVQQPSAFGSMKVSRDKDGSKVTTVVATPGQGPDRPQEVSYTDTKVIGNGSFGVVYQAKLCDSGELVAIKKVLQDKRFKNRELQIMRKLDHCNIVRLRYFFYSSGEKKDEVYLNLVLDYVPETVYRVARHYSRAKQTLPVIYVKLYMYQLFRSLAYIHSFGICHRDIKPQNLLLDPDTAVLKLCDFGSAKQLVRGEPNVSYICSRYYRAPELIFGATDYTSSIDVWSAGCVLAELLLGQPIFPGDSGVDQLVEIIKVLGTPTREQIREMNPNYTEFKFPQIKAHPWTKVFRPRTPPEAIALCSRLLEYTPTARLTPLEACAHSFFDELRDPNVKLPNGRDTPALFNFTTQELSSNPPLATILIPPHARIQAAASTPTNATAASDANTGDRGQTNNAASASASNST
Description: (§1) In FIG. 1 the effect of tungstate (W) on GSK3-β and tau phosphorylation on SH-SY5Y neuroblastoma cells is shown. The data correspond to the mean values and the error bars represent the standard deviation of three independent experiments. A) SH-SY5Y neuroblastoma cells were incubated for 10 minutes in the presence (+) or absence (−) of 1 mM sodium tungstate and their protein extracts were then probed by Western blot with an antibody that recognizes GSK3-β phosphorylated at Ser-9 and total GSK3-β. GSK3-β phosphorylation on Ser-9 causes its inactivation (D. A: Cross et al., Nature, vol. 378, pp. 785-789). […] B) SH-SY5Y cells were incubated with increasing concentrations of tungstate and the degree of tau phosphorylation was determined by Western blot with the tau-1 antibody, which recognizes tau when the serines 198, 199 or 202 are in unphosphorylated form. […] C) SH-SY5Y cells were incubated for 10 minutes in the presence (+) or absence (−) of 1 mM sodium tungstate (W) and the degree of tau phosphorylation was determined by Western blot with the AT180 antibody, which recognizes tau when threonine 231 is in phosphorylated form. […] The total amount of tau protein was determined using the 7.51 antibody.
(§2) The analysis of the degree of the phosphorylation of tau and GSK3 was performed by Western blot with the antibodies mentioned above. […]

GSK3-β [2] = biological target: T2, GSK3-β (Rattus norvegicus, UniProt P18266); assay: Ser-9 phosphorylation of GSK3-β in brain of STZ-diabetic rats intraperitoneally injected with tungstate; format: in vivo; conditions: tungstate 50 or 75 mg/kg intraperitoneally, FIG. 3B
T2 construct: Western blot analysis of Ser-9 phosphorylation of GSK3 in rat brain extracts; from tissue; host or cells: rat brain (Wistar rats: healthy or STZ-diabetic)
T2 sequence (P18266 whole entry): as the sequence (P49841 whole entry) above, with V240M, T390P, T392A, A400T, T402A counted along it
Description: (§3) In FIG. 3 the effect of tungstate (W) on the phosphorylation of tau from brains obtained from STZ-diabetic rats is shown. A) Western blot analysis of Ser-9 phosphorylation of GSK3 in rat brain extracts from control healthy rats intraperitoneally injected with saline (Ctrl) or tungstate (W) (50 mg/kg). […] B) as in A), STZ-diabetic rats intraperitoneally injected with 50 or 75 mg/kg of tungstate. C) Western blot analysis of the phosphorylation of tau at the site recognized by the tau-1 antibody in brain extracts from control healthy rats intraperitoneally injected with saline (Ctrl) or tungstate (W) (50 mg/kg). […] D) as in C), STZ-diabetic rats intraperitoneally injected with 50 or 75 mg/kg of tungstate. The data correspond to mean values and the error bars represent the standard deviation of three to five independent experiments.
(§4) The analysis of the degree of the phosphorylation of tau and GSK3 was performed by Western blot with the antibodies mentioned above. […] The protein concentration was determined using the BCA protein assay (Pierce, Rockford, Ill.). […]

[3] = cited from earlier work
tau [4] = assay: phosphorylation of tau in brains of healthy Wistar rats intracranially injected with tungstate; format: in vivo, rat; conditions: intracranial 0.1 mM tungstate vs saline, FIG. 2A
Description: (§5) In FIG. 2 the effect of tungstate (W) on the phosphorylation of tau in brains from healthy and insulin-resistant rats is shown. A) Western blot analysis of the phosphorylation of GSK3 (left) and tau (right) from brain extracts of healthy rats intracranially injected with saline (−) or 0.1 mM tungstate (+). Phosphorylation was measured with antibodies against Ser-9 phosphorylated GSK3-β (pS9), and tau phosphorylated at threonine 231 (AT180) or unphosphorylated at serines 198, 199 and 202 (tau-1). The total amount of GSK3 and tau was determined through the interaction with antibodies raised against GSK3 and against tau (7.51), respectively. […] Phosphorylation was measured using the antibody that reacts with Ser-9 phosphorylated GSK3-β (pS9-GSK3-β) or with the tau-1 and AT180 antibodies. The total amounts of GSK3 and tau were determined as in A. C) Insulin-resistant rats were injected intracranially with saline (−) or 0.1 mM tungstate (+), their brains were then isolated and homogenised, and Western blots of the brain proteins were performed with the tau-1, and AT180 antibodies. The total amount of tau protein was determined using the 7.51 antibody. […]
as §4

tau [5] = assay: tau phosphorylation (tau-1 site) in brain of STZ-diabetic rats intraperitoneally injected with tungstate; format: in vivo, rat; conditions: tungstate 50 or 75 mg/kg intraperitoneally, FIG. 3D
Description: as §3, §4

tau [6] = assay: tau phosphorylation in SH-SY5Y neuroblastoma cells (Western blot, tau-1 and AT-180 antibodies); format: cell-based, Human
Description: as §1, §2

tau [7] = assay: tau phosphorylation (tau-1 site) in brain of healthy rats intraperitoneally injected with tungstate; format: in vivo, rat; conditions: tungstate 50 mg/kg intraperitoneally vs saline, FIG. 3C
Description: as §3, §4

GSK3 [8] = biological target: T3, GSK3 (Rattus norvegicus, UniProt P18266); assay: Ser-9 phosphorylation of GSK3 in brain of healthy rats intraperitoneally injected with tungstate; format: in vivo; conditions: tungstate 50 mg/kg intraperitoneally vs saline, FIG. 3A
T3 construct: Western blot analysis of Ser-9 phosphorylation of GSK3 in rat brain extracts; from tissue; host or cells: rat brain (Wistar rats: healthy or STZ-diabetic)
T3 sequence (P18266 whole entry): as the sequence (P49841 whole entry) above, with V240M, T390P, T392A, A400T, T402A counted along it
Description: as §3, §4

tau [9] = assay: phosphorylation of tau in brains of insulin-resistant (high fat diet) rats injected intraventricularly with tungstate; format: in vivo, rat; conditions: 5 μl of 110 nM sodium tungstate intraventricularly (FIG. 2 legend: 0.1 mM), 24 hours, cortex, FIG. 2C, dihydrate
Description: In FIG. 2 the effect of tungstate (W) on the phosphorylation of tau in brains from healthy and insulin-resistant rats is shown. A) Western blot analysis of the phosphorylation of GSK3 (left) and tau (right) from brain extracts of healthy rats intracranially injected with saline (−) or 0.1 mM tungstate (+). Phosphorylation was measured with antibodies against Ser-9 phosphorylated GSK3-β (pS9), and tau phosphorylated at threonine 231 (AT180) or unphosphorylated at serines 198, 199 and 202 (tau-1). The total amount of GSK3 and tau was determined through the interaction with antibodies raised against GSK3 and against tau (7.51), respectively. B) Western blot analysis of the phosphorylation in brain of GSK3-β (left) and tau (right) in control (Ctrl) and insulin-resistant (IR) rats. Phosphorylation was measured using the antibody that reacts with Ser-9 phosphorylated GSK3-β (pS9-GSK3-β) or with the tau-1 and AT180 antibodies. The total amounts of GSK3 and tau were determined as in A. C) Insulin-resistant rats were injected intracranially with saline (−) or 0.1 mM tungstate (+), their brains were then isolated and homogenised, and Western blots of the brain proteins were performed with the tau-1, and AT180 antibodies. The total amount of tau protein was determined using the 7.51 antibody. A decrease in the interaction with AT180 and an increase for that of tau-1 were observed
The analysis of the degree of the phosphorylation of tau and GSK3 was performed by Western blot with the antibodies mentioned above. Cells were homogenized at 4° C. in 50 mM 4-(2-hydroxyethyl)piperazine-1-ethanesulfonic acid (HEPES), pH 7.4, 10 mM ethylenediaminetetraacetic acid (EDTA), 0.1% 4-(1,1,3,3-tetramethylbutyl)phenyl-polyethylene glycol (triton X-100), 20 mM NaF, 0.1 mM sodium orthovanadate, 1 mM phenylmethanesulphonylfluoride, 10 μg/ml Isovaleryl-Val-Val-4-amino-3-hydroxy-6-methylheptanoyl-Ala-4-amino-3-hydroxy-6-methylheptanoic Acid (Pepstatin A); and 10 μg/ml aprotinin. The cell lysates were centrifuged at 10,000 g for 30 min at 4° C. and then heated at 100° C. for 5 min in electrophoresis sample buffer. The protein concentration was determined using the BCA protein assay (Pierce, Rockford, Ill.). Proteins were fractionated by sodium dodecylsulfate-polyacrylamide gel electrophoresis (SDS-PAGE) on 10% gels and transferred to nitrocellulose membranes (Schleicher & Schuell Bioscience, Dassel, Germany). After blocking non-specific protein binding to the membranes with 0.05% polyethylene glycol sorbitan monolaurate (Tween 20) and 5% non-fat dry milk in phosphate buffered saline (PBS), the membranes were incubated overnight with the primary antibodies in blocking buffer at 4° C. […]

GSK3 [10] = biological target: T3, GSK3; assay: phosphorylation of GSK3 in brains of healthy Wistar rats intracranially injected with tungstate; format: in vivo; conditions: intracranial 0.1 mM tungstate vs saline, FIG. 2A
Description: as §5, §4

## O.O.[Na+].[Na+].[O]=[W](=[O])([O-])[O-] [sodium tungstate, Sodium tungstate dihydrate]
GSK3-β [1]
  Ser-9 phosphorylation of GSK3-β (ratio GSK3-β-pS9 / total GSK3-β): significantly increased
GSK3-β [2]
  Ser-9 phosphorylation of GSK3-β in brain (pS9-GSK3 / GSK3-β): increased
[3]
  solubility in water: easily dissolved
Tau [4]
  phosphorylation of tau (AT180, tau-1) in brain: did not observe significant changes
Tau [5]
  tau phosphorylation at the site recognized by the tau-1 antibody in brain (tau-1 / 7.51): decreased
Tau [6]; 1 mM sodium tungstate, 10 minutes, FIG. 1C
  phosphorylation of the tau epitope recognized by AT-180 (threonine 231; ratio AT180 / 7.51): decrease
Tau [6]; increasing concentrations of tungstate, FIG. 1B
  immunoreactivity with the tau-1 antibody (tau unphosphorylated at serines 198, 199 or 202; ratio tau1 / 7.51): significant increase
Tau [7]
  tau phosphorylation at the site recognized by the tau-1 antibody in brain (tau-1 / 7.51): no changes
GSK3 [8]
  phosphorylation of GSK3 at Ser-9 in brain (pS9-GSK3 / GSK3-β): no changes
Tau [9]; listed as Tungstate
  amount of tau protein recognized by the tau-1 antibody in brain: increased
  phosphorylation of tau at the epitope recognized by the AT180 antibody in brain: decreased
Tau [9]; listed as tungstate
  amount of tau protein recognized by the tau-1 antibody in brain: increase
  phosphorylation of tau at the epitope recognized by the AT180 antibody in brain: decrease
GSK3 [10]
  phosphorylation of GSK3 (Ser-9) in brain: did not observe significant changes
